This is an account of results in patent US8809627B2, “Plant isoflavone and isoflavanone O-methyltransferase genes” (The Samuel Roberts Noble Foundation, Inc., priority 2006, dated 2014).

Assay [1] deals with T1, MsI7OMT (Medicago sativa, UniProt O24529).
T1 sequence (O24529 1-352): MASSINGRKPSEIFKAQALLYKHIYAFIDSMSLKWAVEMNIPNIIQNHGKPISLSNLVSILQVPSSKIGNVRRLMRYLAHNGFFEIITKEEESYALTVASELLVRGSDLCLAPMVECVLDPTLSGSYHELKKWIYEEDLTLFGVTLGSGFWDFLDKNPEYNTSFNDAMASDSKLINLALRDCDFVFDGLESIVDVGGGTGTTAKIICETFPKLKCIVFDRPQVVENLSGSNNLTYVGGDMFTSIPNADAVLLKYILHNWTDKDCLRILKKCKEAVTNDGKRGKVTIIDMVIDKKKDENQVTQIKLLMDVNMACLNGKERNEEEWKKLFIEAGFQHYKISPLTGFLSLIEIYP
The following applies: reported by He et al., 1998; cited from earlier work.

The target of assay [2] is T1, MsI7OMT. The assay can be described thus: OMT assays with purified recombinant MsI7OMT (relative activity). The format is biochemical. The settings on record: 50 μM S-adenosyl methionine, 100 μM acceptor substrate; most converted substrate = 100%. An excerpt: (§1) Cloning of MtIOMT5 (corresponding to TC 100926, TIGR MtGI v.8) was as described previously (Liu et al., 2005). To obtain a full-length cDNA for MtIOMT2, specific primers designed based upon the M. truncatula genomic sequence were used to amplify the MtIOMT2 coding sequence from M. truncatula root cDNA. The amplified product was cloned into the pGEM®-T easy vector (Promega, Madison Wis.) and sequenced to confirm its identity. MtIOMTs were cloned into the pET28a vector (EMD Biosciences, Inc., San Diego, Calif.) using PCR-based amplification with primers designed to introduce EcoRI and XhoI restriction sites; BamHI and XhoI sites were used for cloning MtIOMT6 due to the presence of an internal EcoRI site in this particular cDNA. Because the EST for MtIOMT8 was missing a start codon, the primer designed to clone MtIOMT8 into pET28a contained an additional 2-nucleotide insertion to generate an ATG start site. All MtIOMTs were expressed as translational fusions to an N-terminal His-tag. Expression of MtIOMTs in E. coli BL21(DE3) and purification by Ni^2+-NTA chromatography were as described (Zubieta et al., 2001). Proteins were dialyzed against 20 mM Tris pH 8.0, 100 mM NaCl, 10% (v/v) glycerol, and 14 mM β-mercaptoethanol. Protein concentration was determined by Bradford assay using BSA as a standard (Bradford, 1976).
Reactions (200 μl) were performed in 0.1 M potassium phosphate, pH 7.4, 10% (w/v) sucrose, 14 mM β-mercaptoethanol with 10 μM protein, 0.5 mM S-adenosyl-L-methionine, and 80 μM phenolic substrates. All substrates were purchased from Indofine (Hillsborough, N.J.) except 6,7-dihydroxy-4′-methoxyisoflavone, dihydrodaidzein, and vestitol, which were purchased from Apin (Oxfordshire, UK). […] OMT assays were incubated at 30° C. for 2 h and extracted with ethyl acetate. Ethyl acetate extracts were dried under N2 and the resultant material was resuspended in 50-100 μl of methanol. Samples were analyzed on an Agilent 1100 HPLC, equipped with a quaternary pump (model #G1311A), a degasser (model #G1322A), an autosampler (model #G1313A), and a diode array detector (model #G1315A). Samples of 20 μl were applied to an ODS2 reverse-phase column (5 μm particle size, 4.6×250 mm) and eluted in 1% (v/v) phosphoric acid with an increasing gradient of acetonitrile (0-5 min, 25%; 5-35 min, 25-50%; 35-39 min, 50-100%) at a flow rate of 1 ml/min. To resolve the 4′-O-methylated and 7-O-methylated products of genistein, samples were applied to a Phenomenex SYNERGI Polar-RP 80 Å column (4 μm particle size, 4.6×250 mm) and eluted in water with an increasing gradient of acetonitrile (0-5 min, 20%; 5-17 min, 20-38%; 17-33 min, 38%; 33-45 min, 38-56%; 45-46 min, 56-100%) at a flow rate of 1 ml/min. Chiral chromatography was performed as described (Liu et al., 2005).
(§2) For determination of specific activities, reactions (100 μl) were performed in 0.1 M potassium phosphate, pH 7.4, 10% (w/v) sucrose, 14 mM β-mercaptoethanol with 0.2-μg protein, 50 μM S-adenosyl-L-methionine (0.025 μCi ^14C-SAM per reaction), and 100 μM substrate. Reactions were incubated at 30° C. for 15-25 min and stopped by addition of 4 μl of 1N HCl. Products were extracted into 500 μl of ethyl acetate and 400 μl was used for liquid scintillation counting.

Assay [3] deals with MtIOMT1. Nature of the assay: OMT assays with purified recombinant MtIOMT1 (relative activity with 14C-SAM). The format is biochemical, Medicago truncatula. The settings on record: for Relative activity, MtIOMT1: 50 μM S-adenosyl methionine, 100 μM acceptor substrate, most converted substrate = 100%.
From the text: as §1, with “1976). […]” for “1976).”
as §2

As for `O=c1c(-c2ccc(O)cc2)coc2cc(O)c(O)cc12` [6,7,4′-trihydroxyisoflavone], in assay [1], the “Activity of MsI7OMT relative to the activity with daidzein” value is reported as 136 % of the activity with daidzein. Also, in assay [2], the “Relative activity, MsI7OMT” value is listed as 51.8%. In assay [3], the “Relative activity, MtIOMT1” value came to 43.9%.
Consider `COc1ccc(-c2coc3cc(O)c(O)cc3c2=O)cc1` [6,7-dihydroxy,4′-methoxyisoflavone], for which the “Relative activity, MsI7OMT” value in assay [2] was “≦1%”. Also, the “Relative activity, MtIOMT1” value in assay [3] is reported as “≦1%”. In addition, in assay [3] (MtIOMT1, methylation of the 4′-hydroxyl group), the “Fold reduction of activity compared with 6,7,4′-trihydroxyisoflavone” value is listed as “more than 80 fold”.
Turning to `O=c1c(-c2ccc(O)c(O)c2)coc2cc(O)ccc12` [7,3′,4′-trihydroxyisoflavone], in assay [2], the “Relative activity, MsI7OMT” value came out at 47.1%. The “Relative activity, MtIOMT1” value in assay [3] was 40.8%.
In the same order, the values of `O=c1cc(-c2ccc(O)cc2)oc2cc(O)ccc12` [7,4′-dihydroxyflavone] are 0% and 0%.
In the same order, the values of `O=c1cc(-c2ccc(O)cc2)oc2cc(O)cc(O)c12` [Apigenin] are 0% and 0%.
In the same order, the values of `O=c1oc2cc(O)ccc2c2oc3cc(O)ccc3c12` [Coumestrol] are 0% and 0%.
On to `O=c1c(-c2ccc(O)cc2)coc2cc(O)ccc12` [Daidzein], for which, in assay [2], the “Relative activity, MsI7OMT” value is 21.6%. The “Relative activity, MtIOMT1” value in assay [3] worked out at 20.6%. Besides, in assay [3] (MtIOMT1, saturating concentration of glycitein), the “Fold by which relative initial activity with glycitein is higher than with this substrate” value came out at 5 fold.
Consider `O=C1c2ccc(O)cc2OCC1c1ccc(O)cc1` (centres unmarked) [Dihydrodaidzein], for which the “Relative activity, MsI7OMT” value in assay [2] turned out to be 12.8%. Moreover, the “Relative activity, MtIOMT1” value in assay [3] is given as 15.6%.
As for `O=c1c(-c2ccc(O)cc2)coc2cc(O)cc(O)c12` [Genistein], in assay [2], the “Relative activity, MsI7OMT” value was 15%. Also, the “Relative activity, MtIOMT1” value in assay [3] is given as 49.2%.
For the compound `COc1cc2c(=O)c(-c3ccc(O)cc3)coc2cc1O` [Glycitein], the “Relative activity, MsI7OMT” value in assay [2] amounted to 100%. Also, in assay [3], the “Relative activity, MtIOMT1” value turned out to be 100%.
For the compound `O=c1c(O)c(-c2cc(O)c(O)c(O)c2)oc2cc(O)cc(O)c12` [Myricetin], the “Relative activity, MsI7OMT” value in assay [2] was 0%. The “Relative activity, MtIOMT1” value in assay [3] is 0%.
As to `O=C1C[C@@H](c2ccc(O)cc2)Oc2cc(O)cc(O)c21` [Naringenin], in assay [2], the “Relative activity, MsI7OMT” value was 0%. The “Relative activity, MtIOMT1” value in assay [3] is given as 0%.
On to `COc1ccc(C2COc3cc(O)ccc3C2)c(O)c1` (centres unmarked) [Vestitol], for which the “Relative activity, MsI7OMT” value in assay [2] was found to be 0%. Moreover, in assay [3], the “Relative activity, MtIOMT1” value is 0%.
